Source: ChEMBL document CHEMBL4483862, “Open-source discovery of chemical leads for next-generation chemoprotective antimalarials” (2018)

System: Plasmodium berghei
Test: Luciferase/luciferin-expressing antifolate-resistant parasites were used to infect a culture of HepG2 cells that were pre-incubated with compounds. Infected hepatocytes emit light due to the luciferase reaction. Assay results are presented as the percent inhibition of light emission compared to control. […]
Format: functional
Details: sporozoite; for IC90: read-out: LUCIFERASE INFECTION ASSAY - IC90
[1] = read-out: LUCIFERASE INFECTION ASSAY - IC50

For `CN1/C(=C\Sc2ccccc2[N+](=O)[O-])C(C)(C)c2ccccc21`, the IC50 (HEPG2TOX_HILL_SLOPE 1.18, HEPG2TOX_R_SQUARED 0.48, PBLUC_HILL_SLOPE 2.15, PBLUC_R_SQUARED 0.378, read-out: LUCIFERASE INFECTION ASSAY - IC50) was 8.07 µM and the IC90 was > 10 µM.

For `COc1ccc(C2=CS/C(=C(/C#N)c3nnc4n3CCCCC4)N2c2ccccc2)cc1`, the IC50 (PBLUC_HILL_SLOPE 18.4, PBLUC_R_SQUARED 0.0899, read-out: LUCIFERASE INFECTION ASSAY - IC50) was 9.78 µM and the IC90 was > 10 µM.

In the case of `FC(F)(F)c1cccc(Nc2nnnc3ccccc23)c1`, the IC50 (PBLUC_HILL_SLOPE 1.72, PBLUC_R_SQUARED 0.746, read-out: LUCIFERASE INFECTION ASSAY - IC50) is reported as 1.03 µM and the IC90 is reported as 3.71 µM.

With `CC(C)(C)NC(=O)c1csc(C(O)c2cccc(C(F)(F)F)c2)n1` (stereo not drawn) the IC50 (HEPG2TOX_HILL_SLOPE 14.6, HEPG2TOX_R_SQUARED 0.662, PBLUC_HILL_SLOPE 2.89, PBLUC_R_SQUARED 0.602, read-out: LUCIFERASE INFECTION ASSAY - IC50) was 4.91 µM and the IC90 was > 10 µM.

For `COCCNc1ccc(C(=O)NCCN2CCN(c3cccc(C)c3)CC2)cc1[N+](=O)[O-]`, the IC50 (PBLUC_HILL_SLOPE 2.05, PBLUC_R_SQUARED 0.556, read-out: LUCIFERASE INFECTION ASSAY - IC50) was 6.29 µM and the IC90 was > 10 µM.

`O=C(c1oc2ccccc2c1CSc1ccc(Cl)cc1)N1CCCS/C1=N\c1ccccc1` was tested, and the IC50 (FFLUC_HILL_SLOPE 3.49, FFLUC_R_SQUARED 0.279, read-out: LUCIFERASE INFECTION ASSAY - IC50) was > 10 µM and the IC90 was > 10 µM.

Work on `Cc1ccc(NC(=O)c2cccc(-c3ccc(O)cc3)c2)cc1Cl` yielded an IC50 (HEPG2TOX_HILL_SLOPE 17.8, HEPG2TOX_R_SQUARED 0.895, PBLUC_HILL_SLOPE 28.1, PBLUC_R_SQUARED 0.516, read-out: LUCIFERASE INFECTION ASSAY - IC50) of 3.94 µM and an IC90 of 4.26 µM.

For `COc1cccc(Cn2c3ccc(NC(=O)CC4CCCCC4)cc3c(=O)n2C)c1`, the IC50 [1] was > 8.1 µM and the IC90 was > 8.1 µM.

In the case of `CCOC(=O)/C=C/C(=O)OCC(=O)c1ccc(C2CCCCC2)cc1`, the IC50 (HEPG2TOX_HILL_SLOPE 7.18, HEPG2TOX_R_SQUARED 0.791, read-out: LUCIFERASE INFECTION ASSAY - IC50) is reported as > 10 µM and the IC90 is reported as > 10 µM.

With `O=C(COC(=O)c1cc(-c2ccc(Cl)cc2)nc2ccccc12)Nc1cc(C(F)(F)F)ccc1-n1cncn1` the IC50 [1] was > 10 µM and the IC90 was > 10 µM.

`Cc1nc(Oc2ccc3ccc(=O)oc3c2)c2c3c(sc2n1)CCCCC3` was tested, and the IC50 (PBLUC_HILL_SLOPE 3.34, 13.2, PBLUC_R_SQUARED 0.778, 0.263, read-out: LUCIFERASE INFECTION ASSAY - IC50) was 7.83 µM and the IC90 was > 10 µM.

In the case of `CCOc1ccccc1NC(=O)/C=C/c1nnc2c3ccccc3cnn12`, the IC50 (HEPG2TOX_HILL_SLOPE 0.359, HEPG2TOX_R_SQUARED 0.214, PBLUC_HILL_SLOPE 0.79, PBLUC_R_SQUARED 0.499, read-out: LUCIFERASE INFECTION ASSAY - IC50) is reported as 1.82 µM and the IC90 is reported as > 10 µM.

In the case of `O=C1C=CC(=O)N1c1ccc(Cl)c(Cl)c1`, the IC50 (FFLUC_HILL_SLOPE 16.6, FFLUC_R_SQUARED 0.832, read-out: LUCIFERASE INFECTION ASSAY - IC50) is reported as > 13.6 µM and the IC90 is reported as > 13.6 µM.

For `N#CC(Cc1ccccc1)Sc1nnc(-c2ccccc2)n1-c1ccccc1` (stereo not drawn), the IC50 (FFLUC_HILL_SLOPE 0.339, FFLUC_R_SQUARED 0.0197, read-out: LUCIFERASE INFECTION ASSAY - IC50) was > 10 µM and the IC90 was > 10 µM.

With `CC(C)(C)c1ccc(-c2csc(NC(=O)c3cnccn3)n2)cc1` the IC50 (HEPG2TOX_HILL_SLOPE 8.57, HEPG2TOX_R_SQUARED 0.595, PBLUC_HILL_SLOPE 12.7, PBLUC_R_SQUARED 0.201, read-out: LUCIFERASE INFECTION ASSAY - IC50) was 9.05 µM and the IC90 was > 10 µM.

With `CCOc1ccc(C(=O)NCc2ccco2)cc1Cl` the IC50 (PBLUC_HILL_SLOPE 19.7, PBLUC_R_SQUARED 0.665, read-out: LUCIFERASE INFECTION ASSAY - IC50) was 11.5 µM and the IC90 was > 11.8 µM.

Work on `O=S(=O)(c1ccc2oc(Nc3ccc(-c4nc5ccccc5[nH]4)cc3)nc2c1)N1CCOCC1` yielded an IC50 (HEPG2TOX_HILL_SLOPE 1.96, HEPG2TOX_R_SQUARED 0.85, PBLUC_HILL_SLOPE 1.98, 8.82, PBLUC_R_SQUARED 0.398, 0.470, read-out: LUCIFERASE INFECTION ASSAY - IC50) of 1.54 µM and an IC90 of 3.62 µM.

With `CCCc1c(C(=O)ONC(=N)c2ccc(C(C)(C)C)cc2)cnn1-c1ccccc1` the IC50 [1] was > 8.16 µM and the IC90 was > 8.16 µM.

With `Cc1c(C(=O)O)cc(-c2ccccc2)n1CCNC(=O)OC(C)(C)C` the IC50 [1] was > 9.58 µM and the IC90 was > 9.58 µM.

With `O=C1Nc2ccc(Cl)cc2/C1=C/c1nn(Cc2ccccc2)cc1-c1cccnc1` the IC50 (FFLUC_HILL_SLOPE 9.69, FFLUC_R_SQUARED 0.424, PBLUC_HILL_SLOPE 9.27, PBLUC_R_SQUARED 0.306, read-out: LUCIFERASE INFECTION ASSAY - IC50) was 8.59 µM and the IC90 was > 10 µM.

In the case of `CCOC(=O)/C=C1\SCC(=O)N1CCOC(=O)c1ccccc1`, the IC50 [1] is reported as > 10 µM and the IC90 is reported as > 10 µM.

In the case of `Cc1nc2ccccn2c1-c1nc(CCC2CCCCC2)c(C(=O)c2c(C)[nH]c3ccccc23)s1`, the IC50 (PBLUC_HILL_SLOPE 8.8, PBLUC_R_SQUARED 0.142, read-out: LUCIFERASE INFECTION ASSAY - IC50) is reported as 8.77 µM and the IC90 is reported as > 10 µM.

For `CC(C)c1cccc(-c2ccc3nnc(-c4ccc5c(c4)NC(=O)CO5)n3c2)c1`, the IC50 (HEPG2TOX_HILL_SLOPE 7.77, HEPG2TOX_R_SQUARED 0.643, read-out: LUCIFERASE INFECTION ASSAY - IC50) was > 10 µM and the IC90 was > 10 µM.

With `c1ccc(Cn2cc(-c3cn4c(-c5ccc6ncccc6c5)cnc4cn3)cn2)cc1` the IC50 [1] was > 8.2 µM and the IC90 was > 8.2 µM.

With `CCc1c(C)[nH]c2c(-c3ccc(Cl)cc3)cnn2c1=O` the IC50 [1] was 5.93 µM and the IC90 was 11 µM.

For `CCc1cc(=O)oc2cc(OCc3csc(N(C(C)=O)c4cccc(C)c4)n3)ccc12`, the IC50 [1] was > 10 µM and the IC90 was > 10 µM.

For `c1cncc(-c2nc(Nc3ccc4n[nH]cc4c3)c3ccccc3n2)c1`, the IC50 (HEPG2TOX_HILL_SLOPE 1.55, HEPG2TOX_R_SQUARED 0.922, PBLUC_HILL_SLOPE 123, PBLUC_R_SQUARED 0.319, read-out: LUCIFERASE INFECTION ASSAY - IC50) was 3.33 µM and the IC90 was 3.39 µM.

In the case of `CC1CCC(C(C)C)C(OCC(O)CN2C(C)CCCC2C)C1` (stereo not drawn), the IC50 [1] is reported as > 9.12 µM and the IC90 is reported as > 9.12 µM.

With `C/C(=N\NC(=S)Nc1ccccc1)c1ccn[nH]1` the IC50 (FFLUC_HILL_SLOPE 48.7, FFLUC_R_SQUARED 0.514, PBLUC_HILL_SLOPE 3.68, PBLUC_R_SQUARED 0.194, read-out: LUCIFERASE INFECTION ASSAY - IC50) was 8.67 µM and the IC90 was > 12.7 µM.

`CCCN1CCc2nc(NCc3ccc(Oc4ccccc4)cc3)ncc2C1` was tested, and the IC50 [1] was > 8.81 µM and the IC90 was > 8.81 µM.

For `COc1ccccc1-c1noc(COC(=O)c2c[nH]nc2-c2ccccc2)n1`, the IC50 [1] was > 10 µM and the IC90 was > 10 µM.

`COc1cc2c(C#N)c(N3CCc4ccccc4C3)nc(N)c2c(N)n1` was tested, and the IC50 [1] was > 10 µM and the IC90 was > 10 µM.

With `CCC(CO)NC(=S)Nc1cc(C(F)(F)F)cc(C(F)(F)F)c1` (stereo not drawn) the IC50 [1] was > 9.16 µM and the IC90 was > 9.16 µM.

Work on `Cc1ccc2nc(CN3CCN(C(c4ccc(F)cc4)c4ccc(F)cc4)CC3)cc(=O)n2c1` yielded an IC50 (PBLUC_HILL_SLOPE 12.7, PBLUC_R_SQUARED 0.219, read-out: LUCIFERASE INFECTION ASSAY - IC50) of 3.48 µM and an IC90 of 4.14 µM.

For `CCc1ccccc1NC(=O)C(C)SCc1ccccc1` (stereo not drawn), the IC50 (PBLUC_HILL_SLOPE 11.9, PBLUC_R_SQUARED 0.654, read-out: LUCIFERASE INFECTION ASSAY - IC50) was 9.84 µM and the IC90 was > 11 µM.

For `CN1CCN(c2ccc(-c3cn4c(-c5ccc(CO)cc5)cnc4cn3)cc2)CC1`, the IC50 (PBLUC_HILL_SLOPE 2.22, PBLUC_R_SQUARED 0.0391, read-out: LUCIFERASE INFECTION ASSAY - IC50) was > 8.26 µM and the IC90 was > 8.26 µM.

`Cc1ccc(CNc2nc(NCc3cccs3)nc3ccsc23)c(C)c1` was tested, and the IC50 (PBLUC_HILL_SLOPE 356, PBLUC_R_SQUARED 0.443, read-out: LUCIFERASE INFECTION ASSAY - IC50) was 1.62 µM and the IC90 was 1.63 µM.

For `COC(=O)c1ccc2c(=O)nc(CSc3nnc(-c4ccccc4)c(-c4ccccc4)n3)[nH]c2c1`, the IC50 [1] was > 10 µM and the IC90 was > 10 µM.

`COc1cc(OC)c(C(=O)/C=C/c2cccc(C#N)c2)cc1Cl` was tested, and the IC50 (HEPG2TOX_HILL_SLOPE 2.22, HEPG2TOX_R_SQUARED 0.565, PBLUC_HILL_SLOPE 10.9, PBLUC_R_SQUARED 0.489, read-out: LUCIFERASE INFECTION ASSAY - IC50) was 3.33 µM and the IC90 was 4.08 µM.

In the case of `CCC(C)(C)c1ccc(Oc2ccc(NC(=O)CN3c4cccc5cccc(c45)S3(=O)=O)cc2)cc1`, the IC50 [1] is reported as > 10 µM and the IC90 is reported as > 10 µM.

In the case of `O=c1[nH]c2ccccc2c(=O)n1CC1(N2CCCCC2)CCCCC1`, the IC50 [1] is reported as > 10 µM and the IC90 is reported as > 10 µM.

`Cn1nc(C(C)(C)C)cc1NC(=O)Cc1ccc(-c2ccccc2)cc1` was tested, and the IC50 (HEPG2TOX_HILL_SLOPE 0.763, HEPG2TOX_R_SQUARED 0.965, PBLUC_HILL_SLOPE 1.31, PBLUC_R_SQUARED 0.513, read-out: LUCIFERASE INFECTION ASSAY - IC50) was 2.95 µM and the IC90 was > 10 µM.

In the case of `CC1CCc2nc3ccccc3c(C(=O)OC(C)C(=O)NCCC3=CCCCC3)c2C1` (stereo not drawn), the IC50 [1] is reported as > 10 µM and the IC90 is reported as > 10 µM.

`CCCOc1ccc2ccccc2c1CN(C)c1cncc(-n2cccn2)n1` was tested, and the IC50 [1] was > 10 µM and the IC90 was > 10 µM.

With `O=[N+]([O-])c1cc(Cl)ccc1Oc1c(Cl)cccc1Cl` the IC50 [1] was > 10.4 µM and the IC90 was > 10.4 µM.

With `OC12CC3CC(C1)CC(c1cc(-c4ccccc4Cl)c4cc(Cl)ccc4n1)(C3)C2` the IC50 [1] was > 10 µM and the IC90 was > 10 µM.

For `Cc1ccc(Cn2nc(C)c3cc(C(=O)N4CCN(c5ncccn5)CC4)sc32)cc1`, the IC50 [1] was > 10 µM and the IC90 was > 10 µM.

With `C[C@H](NC(=O)[C@@H]1CSC2c3ccccc3C(=O)N21)C(=O)NC1CCCCC1` (stereo partly drawn) the IC50 [1] was > 8.52 µM and the IC90 was > 8.52 µM.

With `O=C(CSc1nnc(Nc2ccccc2)s1)Nc1ccccc1N1CCCC1` the IC50 [1] was > 10 µM and the IC90 was > 10 µM.
